In PubChem BioAssay AID540354 (Broad Institute, 2011):
Activity calls are given as the source filed them.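 The calls were made as follows: active = compounds lowering labeled HDL uptake signal, with AC50 at most ten times the top tested dose; inconclusive = flat partial inhibition between 30 and 70% or unreliable fit; inactive = the rest.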

system: ldlA[mSR-BI] CHO cells, DiI-HDL uptake fluorescence, 3 h; assay: SR-BI mediated HDL uptake inhibitors, dose response, ldlA[mSR-BI] CHO cells, dry powder samples (AID 540354); settings: not given

Going from Cc1cc(C)n(CC(=O)NC2CCCc3c2cnn3-c2ccc(C)c(C)c2)n1 (stereo not drawn) to Cc1ccc(-c2nnc(N3CCC(C)CC3)c3ccccc23)cc1C, the AC50 falls from 376 nM to 197 nM (1.9-fold).

Compared with C[C@H]1CN([C@@H](C)CO)C(=O)c2cccc(N(C)C)c2O[C@@H]1CN(C)Cc1ccc(Cl)c(Cl)c1, C[C@H]1CN([C@@H](C)CO)C(=O)c2cccc(NS(C)(=O)=O)c2O[C@@H]1CN(C)Cc1ccc(Cl)c(Cl)c1 is 2.2-fold lower in AC50: 42400 nM for the first, 19400 nM for the second.

Going from O=C(Nc1ccc(-c2nc3ccc(NC(=O)c4ccccc4)cc3[nH]2)cc1)c1ccccc1 to O=C(Nc1ccc(-c2nc3ccc(NC(=O)c4ccc(Cl)cc4)cc3[nH]2)cc1)c1ccc(Cl)cc1, the AC50 falls from 526 nM to less than 15 nM.

O=C(Nc1ccccc1)c1ccccc1NS(=O)(=O)c1ccc(Cl)cc1 and O=C(Nc1ccccc1Cl)c1ccccc1NS(=O)(=O)c1ccccc1 are within 1.5-fold of each other in AC50: 47800 nM for the first, 33300 nM for the second.

First: O=C(Nc1cc(C(F)(F)F)ccc1Cl)c1ccccc1NS(=O)(=O)c1ccc(Cl)cc1
Second: O=C(Nc1cc(Cl)ccc1Cl)c1cc(Cl)ccc1NS(=O)(=O)c1ccc(Cl)c([N+](=O)[O-])c1
The AC50 of the first is 3.1-fold higher: 1380 nM for the first, 444 nM for the second.

Compared with C[C@@H]1CN([C@H](C)CO)C(=O)c2cc(NC(=O)Cc3cn(C)c4ccccc34)ccc2O[C@@H]1CN(C)S(=O)(=O)c1ccc(F)cc1, C[C@@H]1CN([C@H](C)CO)C(=O)c2cc(NC(=O)Cc3cn(C)c4ccccc34)ccc2O[C@H]1CN(C)S(=O)(=O)c1ccc(F)cc1 is 24-fold lower in AC50: 25700 nM for the first, 1090 nM for the second.

C[C@H]1CN([C@@H](C)CO)C(=O)c2cccc(NC(=O)Nc3ccccc3)c2O[C@@H]1CN(C)C and C[C@H]1CN([C@@H](C)CO)C(=O)c2cccc(NC(=O)Nc3ccccc3)c2O[C@@H]1CN(C)Cc1ccccc1 are within 1.5-fold of each other in AC50: 17300 nM for the first, 13400 nM for the second.

Compared with Cc1cc(SC(C)C(=O)Nc2ncc(Cl)cc2Cl)nc2ccccc12 (stereo not drawn), C[C@H]1CN([C@@H](C)CO)C(=O)c2cccc(NC(=O)Nc3ccccc3)c2O[C@@H]1CN(C)Cc1ccc(Cl)c(Cl)c1 is 3.1-fold higher in AC50: 491 nM for the first, 1500 nM for the second.

Going from O=C(Nc1ccc(-c2nc3cc(NC(=O)c4ccc(NC(=O)c5cccc6ccccc56)cc4)ccc3[nH]2)cc1)c1ccc(NC(=O)c2cccc3ccccc23)cc1 to Nc1ccc(C(=O)Nc2ccc(-c3nc4ccc(NC(=O)c5ccc(N)cc5)cc4[nH]3)cc2)cc1, the AC50 rises from less than 15 nM to 813 nM.

Going from COC(=O)c1cn(C(=O)c2cccc3ccccc23)c2ccccc12 to O=C(Nc1ccc(-c2nc3cc(NC(=O)c4ccccc4Cl)ccc3o2)cc1)c1ccccc1Cl, the AC50 falls from 3610 nM to 16 nM (230-fold).

COc1ccc(-c2nnn(CC(=O)N(C3CCCCC3)C(C)C(=O)NC3CCCC3)n2)cc1OC (stereo not drawn) and CCOc1ccc(NC(=O)CN2CCN(CC(=O)Nc3cc(OC)cc(OC)c3)CC2)cc1 cannot be ordered by AC50: 28 nM for the first, less than 30 nM for the second.

Going from CCC(=O)N1CCc2cc(-c3csc(NC(=O)c4ccco4)n3)ccc21 to COc1cccc(-c2csc(N3CCN(C(=S)Nc4cccc(Cl)c4)CC3)n2)c1, the AC50 rises from 17 nM to 1890 nM (110-fold).

C[C@H]1CN([C@@H](C)CO)C(=O)c2cccc(NC(=O)Nc3ccc(F)cc3)c2O[C@@H]1CN(C)Cc1ccc(Cl)c(Cl)c1 and CC(C)NC(=O)Nc1cccc2c1O[C@H](CN(C)Cc1ccc(Cl)c(Cl)c1)[C@@H](C)CN([C@@H](C)CO)C2=O are within 1.5-fold of each other in AC50: 1390 nM for the first, 1050 nM for the second.

Compared with C[C@H](CO)N1C[C@H](C)[C@@H](CN(C)S(=O)(=O)c2ccc(F)cc2)Oc2ccc(NC(=O)Cc3cn(C)c4ccccc34)cc2C1=O, C[C@@H]1CN([C@@H](C)CO)C(=O)c2cc(NC(=O)Cc3cn(C)c4ccccc34)ccc2O[C@H]1CN(C)S(=O)(=O)c1ccc(F)cc1 is 18-fold lower in AC50: 38500 nM for the first, 2190 nM for the second.

Compared with COc1ccc([C@H]2CC(=O)C=C(c3cccc4c3sc3ccccc34)C2)cc1OC, COc1ccc(OC)c(CCNC(=O)c2ccc3c(c2)N(Cc2ccc(F)cc2)CCS3)c1 is 2.7-fold higher in AC50: 208 nM for the first, 559 nM for the second.

Compared with Cc1ccc2oc(-c3cccc(NC(=O)c4cc(-n5cnnc5)ccc4Cl)c3)nc2c1, O=C(Nc1ccc(-c2nc3cc(NC(=O)c4ccccc4[N+](=O)[O-])ccc3o2)cc1)c1ccccc1[N+](=O)[O-] is lower in AC50: 593 nM for the first, less than 15 nM for the second.

Going from CC(C)(C)NC(=O)N1CCN(c2ncccc2C(F)(F)F)CC1 to CCn1c(COc2c(C)cccc2C)nnc1SCC(=O)N1CCN(c2ccccc2)CC1, the AC50 rises from 292 nM to 2790 nM (9.6-fold).

Compared with CCc1cc2cc3c(cc2nc1SCC(=O)OC(C)C)OCO3, Cc1cc(C)c2c(c1)NC(c1cc3c(cc1Br)OCO3)C1CC=CC21 (stereo not drawn) is 6.4-fold higher in AC50: 79 nM for the first, 505 nM for the second.

First: Cc1cc(C(=O)C(C)OC(=O)C2=NNC(=O)CC2)c(C)n1-c1ccc(OC(F)F)cc1 (stereo not drawn)
Second: CC(OC(=O)c1cccc(NS(C)(=O)=O)c1)C(=O)Nc1ccc(N2CCOCC2)cc1 (stereo not drawn)
The AC50 of the first is 3.9-fold higher: 1300 nM for the first, 335 nM for the second.

Compared with C[C@@H]1CN([C@H](C)CO)C(=O)c2cc(NC(=O)Cc3cn(C)c4ccccc34)ccc2O[C@H]1CN(C)S(=O)(=O)c1ccc(Cl)cc1, C[C@@H]1CN([C@H](C)CO)C(=O)c2cc(NC(=O)Cc3cn(C)c4ccccc34)ccc2O[C@H]1CN(C)S(=O)(=O)c1ccccc1 is 2.8-fold higher in AC50: 454 nM for the first, 1290 nM for the second.

Going from CC(C)OCCCNC(=O)c1ccc(C2SCC(=O)N2Cc2ccco2)cc1 (stereo not drawn) to CNC[C@@H]1Oc2ccc(NC(=O)Cc3cn(C)c4ccccc34)cc2C(=O)N([C@H](C)CO)C[C@H]1C, the AC50 rises from 1380 nM to 48000 nM (35-fold).

Going from O=C(Nc1ccc(-c2nc3ccc(NC(=O)c4ccccc4[N+](=O)[O-])cc3[nH]2)cc1)c1ccccc1[N+](=O)[O-] to O=C(Nc1cccc(NC(=O)c2cc([N+](=O)[O-])ccc2Cl)n1)c1cc([N+](=O)[O-])ccc1Cl, the AC50 rises from 251 nM to 1960 nM (7.8-fold).

Going from CCOC(=O)Nc1cccc(NC(=O)c2cc(OC)cc(OC)c2)c1 to CCOC(=O)N1CCC(NC(=O)c2ccc3c(c2)N(Cc2ccc(F)cc2)CCS3)CC1, the AC50 falls from 546 nM to 32 nM (17-fold).

Going from CCOc1ccccc1/C=C/c1onc(C)c1S(=O)(=O)N1CCC(C(=O)NC(C)(C)C)CC1 to Cc1ccccc1NC(=O)NCC1CCN(c2ccc(S(=O)(=O)N3CCOCC3)cc2)CC1, the AC50 rises from 77 nM to 262 nM (3.4-fold).

First: N#Cc1sc2nc(C3CC3)cc(-c3ccc(Cl)cc3)c2c1N
Second: CCc1sc(N2C(=O)C3C4CCC(C4=C(C)C)C3C2=O)nc1-c1ccccc1 (stereo not drawn)
The AC50 of the first is 2.2-fold higher: 1640 nM for the first, 754 nM for the second.

O=C(Nc1cc(Cl)ccc1Cl)c1cc(Br)ccc1NS(=O)(=O)c1ccc(Cl)c([N+](=O)[O-])c1 and O=C(Nc1ccc(Cl)cc1C(=O)c1ccc(Cl)cc1)c1cc(Br)ccc1NS(=O)(=O)c1ccc(Cl)cc1 are within 1.5-fold of each other in AC50: 426 nM for the first, 494 nM for the second.

Going from C[C@H]1CN([C@@H](C)CO)C(=O)c2cccc(NC(=O)Nc3ccccc3)c2O[C@@H]1CN(C)Cc1ccc(C(F)(F)F)cc1 to C[C@@H]1CN([C@H](C)CO)C(=O)c2cc(NC(=O)Cc3cn(C)c4ccccc34)ccc2O[C@H]1CN(C)C(=O)Nc1ccc(F)cc1, the AC50 falls from 28000 nM to 3290 nM (8.5-fold).

With C[C@@H]1CN([C@H](C)CO)C(=O)c2cc(NC(=O)Cc3cn(C)c4ccccc34)ccc2O[C@H]1CN(C)S(C)(=O)=O the AC50 was 18200 nM.

For C[C@H](CO)N1C[C@H](C)[C@H](CN(C)S(=O)(=O)c2ccc(F)cc2)Oc2ccc(NC(=O)CCC(F)(F)F)cc2C1=O, the AC50 was > 35000 nM (inactive).

system: not listed separately; assay: as above; settings: ldlA[mSR-BI] CHO cells, DiI-HDL uptake fluorescence, 3 h; at 35 µM (top of the series)

In the case of C[C@H](CO)N1C[C@H](C)[C@H](CN(C)S(=O)(=O)c2ccc(F)cc2)Oc2ccc(NC(=O)Cc3ccccc3)cc2C1=O, the activity change, negative = inhibition was -3.31% (inactive).
In the case of C[C@H](CO)N1C[C@H](C)[C@H](CN(C)S(=O)(=O)c2ccc(F)cc2)Oc2ccc(NS(C)(=O)=O)cc2C1=O, the activity change, negative = inhibition was -1.08% (inactive).
